These results are taken from PubChem BioAssay (NCI).

Among the test systems are OVCAR-3 ovarian; SF-539 CNS; M14 melanoma; HCT-116 colon; HCC-2998 colon; HS 578T breast; 786-0 renal; SW-620 colon; SNB-75 CNS; OVCAR-5 ovarian.
Holding throughout (experiment): NCI-60 cell line screen, 48 h

Each structure is given as a SMILES string. Where “and” joins values, the source holds several entries; their conditions need not be identical. Equal entries are not always repeated.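 Five concentrations, 48 hours, 96-well plates. At the GI50, growth is halved. TGI: concentration producing complete growth inhibition.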 A value given as a limit tells only on which side of the number the result lay.

Take `NS(=O)(=O)c1ccc(N2N=C3c4ccccc4CC3C2c2cccs2)cc1` (stereo not drawn): the GI50 with OVCAR-3 ovarian is 24.8 µM; in the assay with SF-539 CNS, 17.4 µM; in the assay with M14 melanoma, 26 µM; in the assay on HCT-116 colon, 10.7 µM; in the assay with HCC-2998 colon it was 14.8 µM; in the assay on HS 578T breast, 28.7 µM. Also, the GI50 in the assay on 786-0 renal is 17.6 µM; in the assay on SW-620 colon it was 35.4 µM; in the assay with SNB-75 CNS, 31.1 µM; in the assay on OVCAR-5 ovarian it was 26.6 µM. The TGI in the assay on OVCAR-3 ovarian was 47.8 µM; with SF-539 CNS, 48.1 µM; in the assay with M14 melanoma it was greater than 100 µM; in the assay with HCT-116 colon, 25 µM; in the assay with HCC-2998 colon, 39.6 µM; in the assay on HS 578T breast it was 76.9 µM. The TGI in the assay on 786-0 renal was 41.7 µM; in the assay on SW-620 colon, greater than 100 µM; with SNB-75 CNS it was greater than 100 µM; in the assay with OVCAR-5 ovarian it was greater than 100 µM.

`CN(C)c1ccc(/C=C2\N=C(c3ccccc3)N(c3cc(C(F)(F)F)ccc3Cl)C2=O)cc1`: the GI50 with OVCAR-3 ovarian is greater than 78.5 µM; in the assay with SF-539 CNS, greater than 100 µM; with M14 melanoma it was greater than 100 µM; in the assay with HCT-116 colon it was greater than 100 µM; in the assay with HCC-2998 colon it was greater than 100 µM; in the assay with HS 578T breast, greater than 100 µM. Besides, the GI50 with 786-0 renal, in the assay with SW-620 colon, with SNB-75 CNS and in the assay on OVCAR-5 ovarian was greater than 100 µM each time. For the same compound, the TGI in the assay on OVCAR-3 ovarian, in the assay on SF-539 CNS, in the assay with M14 melanoma, in the assay on HCT-116 colon, with HCC-2998 colon and in the assay on HS 578T breast was greater than 100 µM in each case. Also, the TGI with 786-0 renal, in the assay on SW-620 colon, with SNB-75 CNS and in the assay with OVCAR-5 ovarian was greater than 100 µM each time.

Take `C#CCNC(=S)N/N=C(\C)c1ccccn1`: the GI50 in the assay on OVCAR-3 ovarian is 0.0353 µM; with SF-539 CNS, 0.35 µM; in the assay on M14 melanoma, 0.454 µM; in the assay with HCT-116 colon it was 0.0329 µM; in the assay with HCC-2998 colon it was 1.24 µM; in the assay with HS 578T breast it was 9.84 µM. The GI50 in the assay on 786-0 renal was 0.354 µM; in the assay with SW-620 colon, 0.341 µM; in the assay with SNB-75 CNS, 0.943 µM; in the assay on OVCAR-5 ovarian it was 0.885 µM. Also, the TGI with OVCAR-3 ovarian was 19.4 µM; in the assay on SF-539 CNS, 3.52 µM; in the assay with M14 melanoma, 5.15 µM; in the assay with HCT-116 colon it was greater than 38 µM; in the assay on HCC-2998 colon, greater than 100 µM; in the assay with HS 578T breast, greater than 100 µM. For the same compound, the TGI in the assay with 786-0 renal was greater than 100 µM; in the assay on SW-620 colon it was greater than 100 µM; in the assay with SNB-75 CNS, greater than 23.7 µM; with OVCAR-5 ovarian it was greater than 100 µM.

For `CCc1ccccc1NC(=O)/C=C/c1ccccc1`, the TGI in the assay with OVCAR-3 ovarian, in the assay with SF-539 CNS, in the assay with M14 melanoma, in the assay on HCT-116 colon, in the assay on HCC-2998 colon and with HS 578T breast was greater than 100 µM in each case. In addition, the TGI in the assay with 786-0 renal, in the assay on SW-620 colon, with SNB-75 CNS and with OVCAR-5 ovarian was greater than 100 µM in each case.

For the compound `Cc1cc(C)c2c(n1)sc1c(N)ncnc12`, the GI50 is greater than 25 µM with OVCAR-3 ovarian; greater than 24.1 µM in the assay on SF-539 CNS; greater than 25 µM in the assay with M14 melanoma; 24.4 µM in the assay with HCT-116 colon; greater than 25 µM in the assay on HCC-2998 colon; 11.4 µM in the assay with HS 578T breast. The GI50 is greater than 25 µM in the assay with 786-0 renal, greater than 25 µM with SW-620 colon, greater than 20.8 µM with SNB-75 CNS and greater than 25 µM in the assay with OVCAR-5 ovarian. Besides, the TGI with OVCAR-3 ovarian, with SF-539 CNS, with M14 melanoma, with HCT-116 colon, in the assay with HCC-2998 colon and with HS 578T breast was greater than 25 µM each time. Further, the TGI in the assay with 786-0 renal, in the assay with SW-620 colon, in the assay on SNB-75 CNS and in the assay with OVCAR-5 ovarian was greater than 25 µM in each case.

`O=C(/C=C/c1ccc(C(F)(F)F)cc1)Nc1ccc(C=C2c3ccccc3C(=O)c3ccccc32)cc1`: the GI50 with OVCAR-3 ovarian is 3.76 µM; in the assay on SF-539 CNS it was 23.1 µM; in the assay on M14 melanoma, 3.41 µM; with HCT-116 colon, 4 µM; with HCC-2998 colon, 8.71 µM; in the assay on HS 578T breast, 13.1 µM. Further, the GI50 in the assay on 786-0 renal is 13.6 µM; with SW-620 colon, 4.57 µM; with SNB-75 CNS it was 7.26 µM; in the assay with OVCAR-5 ovarian, 43.6 µM. The TGI with OVCAR-3 ovarian was 18 µM; with SF-539 CNS, 96.3 µM; in the assay with M14 melanoma, 18.8 µM; in the assay with HCT-116 colon it was greater than 100 µM; with HCC-2998 colon, greater than 100 µM; in the assay on HS 578T breast it was greater than 100 µM. Besides, the TGI with 786-0 renal was greater than 100 µM; in the assay with SW-620 colon, greater than 100 µM; with SNB-75 CNS, 39.1 µM; in the assay with OVCAR-5 ovarian, greater than 100 µM.

For `CCN(Cc1cc(F)ccc1F)c1ccc(CO)c(Cl)c1`, the GI50 in the assay on OVCAR-3 ovarian is 0.238 µM; with SF-539 CNS, 15.2 µM; with M14 melanoma it was 15.5 µM; in the assay with HCT-116 colon, 0.0553 µM; in the assay with HCC-2998 colon, 6.37 µM; in the assay on HS 578T breast, 16.2 µM. For the same compound, the GI50 in the assay with 786-0 renal was 11.8 µM; in the assay on SW-620 colon it was 0.554 µM; in the assay with SNB-75 CNS, 10.4 µM; in the assay on OVCAR-5 ovarian it was 0.0502 µM. The TGI in the assay on OVCAR-3 ovarian was determined as 0.861 µM; in the assay with SF-539 CNS, 30.4 µM; in the assay on M14 melanoma, 32.5 µM; in the assay on HCT-116 colon, 11.7 µM; with HCC-2998 colon, 21.7 µM; in the assay on HS 578T breast, 47.4 µM. Further, the TGI with 786-0 renal turned out to be 26.9 µM; with SW-620 colon, 20.5 µM; in the assay on SNB-75 CNS, 35.6 µM; in the assay with OVCAR-5 ovarian it was 0.228 µM.

Turning to `Cc1nc2ccc(Br)cc2c(=O)n1-c1ccc(NC2OCC(O)C(O)C2O)cc1` (stereo not drawn), the GI50 is 34.8 µM and > 100 µM in the assay with OVCAR-3 ovarian; 18.3 µM and > 100 µM in the assay on SF-539 CNS; 17.9 µM and > 100 µM with M14 melanoma; 17.7 µM and 79.2 µM with HCT-116 colon; 19.1 µM and > 100 µM with HCC-2998 colon; 19.1 µM and > 100 µM with 786-0 renal. Moreover, the GI50 in the assay on SW-620 colon is 17.8 µM and > 100 µM; in the assay with SNB-75 CNS, 38.7 µM and 92.3 µM. The TGI in the assay on OVCAR-3 ovarian is greater than 100 µM; in the assay with SF-539 CNS it was 37.2 µM and > 100 µM; in the assay on M14 melanoma, 35.6 µM and > 100 µM; with HCT-116 colon, 53.7 µM and > 100 µM; in the assay on HCC-2998 colon, 40.4 µM and > 100 µM; with HS 578T breast it was greater than 100 µM. Also, the TGI with 786-0 renal was 42.2 µM and > 100 µM; in the assay on SW-620 colon, 47 µM and > 100 µM; in the assay on SNB-75 CNS, greater than 100 µM; in the assay on OVCAR-5 ovarian it was greater than 100 µM.
